Data on 13 compounds can be found in patent US8404726B2, “Activating agent for peroxisome proliferator activated receptor δ” (Nippon Chemiphar Co. Ltd., priority 2006, dated 2013).

For data set [1], the target named is T1, hPPARγ (LBD) (Homo sapiens, UniProt P37231).
T1 construct: A receptor expression plasmid (pSG5-GAL4-hPPARα or γ or δ (LBD)); GAL4 (fusion partner); expressed in transfected cells; host or cells: CV-1 cells (ATCC)
T1 sequence (P37231 238-503 limits assumed): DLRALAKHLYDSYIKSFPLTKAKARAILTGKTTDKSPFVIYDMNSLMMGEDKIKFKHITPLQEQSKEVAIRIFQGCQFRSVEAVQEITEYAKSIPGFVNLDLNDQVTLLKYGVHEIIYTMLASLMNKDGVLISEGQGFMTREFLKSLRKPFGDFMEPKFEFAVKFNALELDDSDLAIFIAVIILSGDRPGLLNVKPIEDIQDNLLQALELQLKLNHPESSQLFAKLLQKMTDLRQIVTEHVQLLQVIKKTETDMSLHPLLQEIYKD
Nature of the data set: PPAR activating function, GAL4-hPPARγ (LBD) luciferase reporter transfected into CV-1 cells. The format is cell-based. Conditions: control Rosiglitazone 10^−5 M = 100%. As to the method:
(§1) The PPAR activating effect of the compound of the invention was determined by the following method:
(§2) A receptor expression plasmid (pSG5-GAL4-hPPARα or γ or δ (LBD)), a luciferase expression plasmid (MH100×4-TK-Luc), and a β-galactosidase expression plasmid (pCMX-β-GAL) are transfected into CV-1 cells (ATCC) (Kliewer, S. A. et al., (1992) Nature, 358: 771-774). After the gene transfer is conducted by utilizing a lipofection reagent (Lipofectamine 2000, Invitrogen), it is incubated for about 40 hours in the presence of a compound to be tested. The luciferase activity and β-GAL activity are measured on the soluble cells.
(§3) The luciferase activity is calibrated by the β-GAL activity. A relative ligand activity is calculated under the condition that the luciferase activity of the cells treated by GW-590735 for PPARα, Rosiglitazone for PPARγ, or GW-501516 for PPARδ is set to 100% to determine EC50 (see the below-mentioned Examples 14 and 15).
(§4) PPAR activating functions of test compounds (compounds of Examples) were measured in the manner described below.
(§5) A receptor expression plasmid (pSG5-GAL4-hPPARα or γ or δ (LBD)), a luciferase expression plasmid (pUC8-MH100×4-TK-Luc), and a β-galactosidase expression plasmid (pCMX-β-GAL) were transfected into CV-1 cells (ATCC) (Kliewer, S. A. et al., (1992) Nature, 358: 771-774). After the gene transfer was conducted by utilizing a lipofection reagent (Lipofectamine 2000, Invitrogen), it was incubated for about 40 hours in the presence of a compound to be tested. The luciferase activity and β-GAL activity were measured on the soluble cells.
(§6) The luciferase activity was calibrated by the β-GAL activity. A relative ligand activity was calculated under the condition that the luciferase activity of the cells treated by GW-590735 for PPARα, Rosiglitazone for […], or GW-501516 for PPARδ was set to 100% to determine EC50.
(§7) The tests were conducted in the same manner to Example 14 (1).

Data set [2] deals with T2, hPPARα (LBD) (Homo sapiens, UniProt Q07869).
T2 construct: A receptor expression plasmid (pSG5-GAL4-hPPARα or γ or δ (LBD)); GAL4 (fusion partner); expressed in transfected cells; host or cells: CV-1 cells (ATCC)
T2 sequence (Q07869 239-466 limits assumed): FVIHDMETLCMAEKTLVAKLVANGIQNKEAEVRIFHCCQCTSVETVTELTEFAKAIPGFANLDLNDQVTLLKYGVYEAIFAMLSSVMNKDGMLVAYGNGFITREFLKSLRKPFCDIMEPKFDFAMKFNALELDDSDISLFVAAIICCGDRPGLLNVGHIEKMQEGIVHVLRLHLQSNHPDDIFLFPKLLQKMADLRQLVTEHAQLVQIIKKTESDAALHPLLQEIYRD
Nature of the data set: PPAR activating function, GAL4-hPPARα (LBD) luciferase reporter transfected into CV-1 cells. The settings on record: control GW-590735 10^−6 M = 100%. The format is cell-based. As to the method: as §1, §2, §3, §4, §5, §6, §7
Background: A reporter such as luciferase makes a cellular process visible.

Data set [3] addresses T3, hPPARδ (LBD) (Homo sapiens, UniProt Q03181).
T3 construct: A receptor expression plasmid (pSG5-GAL4-hPPARα or γ or δ (LBD)); GAL4 (fusion partner); expressed in transfected cells; host or cells: CV-1 cells (ATCC)
T3 sequence (Q03181 211-439 limits assumed): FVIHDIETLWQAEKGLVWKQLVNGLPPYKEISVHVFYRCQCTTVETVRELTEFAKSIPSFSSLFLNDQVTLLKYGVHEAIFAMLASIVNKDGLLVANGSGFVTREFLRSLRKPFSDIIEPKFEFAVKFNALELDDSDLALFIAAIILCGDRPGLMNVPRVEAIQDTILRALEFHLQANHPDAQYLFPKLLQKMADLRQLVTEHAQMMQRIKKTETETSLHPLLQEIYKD
Description: PPAR activating function, GAL4-hPPARδ (LBD) luciferase reporter transfected into CV-1 cells. In kind it is cell-based. How it is done: as §1, §2, §3, §4, §5, §6, §7

Where [4] appears, read: 10^−7M of the test compound, control GW-501516 10^−7 M = 100%, CV-1 cells.
[5] abbreviates: 10^−6 M of the test compound (Examples 3 and 8).

One may read the melting point as the temperature of the solid-liquid transition.

Consider `Cc1cc(C(=O)CCc2sc(-c3ccc(C(F)(F)F)cc3)cc2C(C)C)ccc1CCC(=O)O` [Example 2, 3-[4-[3-[3-Isopropyl-5-[4-(trifluoromethyl)phenyl]thiophen-2-yl]propionyl]-2-methylphenyl]propionic acid], for which the “PPAR activity PPARγ (relative value, control = 100%)” value in data set [1] (10^−7 M of the test compound) is “Inactive”. The “PPAR activity PPARα (relative value, control = 100%)” value in data set [2] (10^−7 M of the test compound) was “Inactive”.

Consider `CC(C)c1nc(-c2ccc(C(F)(F)F)cc2)sc1CCC(=O)c1ccc(N(C)CC(=O)O)cc1` [Example 7, N-[4-[3-[4-Isopropyl-2-[4-(trifluoromethyl)phenyl]thiazol-5-yl]propionyl]phenyl]-N-methylglycine], for which the “PPAR activity PPARγ (relative value, control = 100%)” value in data set [1] (10^−7 M of the test compound) is on record as “Inactive”. Also, the “PPAR activity PPARα (relative value, control = 100%)” value in data set [2] (10^−7 M of the test compound) is “Inactive”.

`CC(C)c1oc(-c2ccc(Cl)cc2O)nc1CCC(=O)c1ccc(N(C)CC(=O)O)cc1` [Example 10, N-[4-[3-[2-(4-chloro-2-hydroxyphenyl)-5-isopropyl-4-oxazolyl]propionyl]phenyl]-N-methylglycine] returned a melting point of 166 to 168 °C. In addition, in data set [3] (setting [4]), the “PPAR activity PPARδ: relative value (control = 100%)” value was determined as 69%. Besides, the “PPAR activity PPARγ: relative value (control = 100%)” value in data set [1] (10^−7 M of the test compound) is on record as “Inactive”. Also, the “PPAR activity PPARα: relative value (control = 100%)” value in data set [2] (10^−7 M of the test compound) is recorded as “Inactive”.

In the case of `CCCCCCc1nc(-c2ccc(C)cc2)sc1CCC(=O)c1ccc(CCC(=O)O)c(C)c1` [Example 1, 3-[4-[3-[4-Hexyl-2-(4-methylphenyl)thiazol-5-yl]propionyl]-2-methylphenyl]propionic acid], the “PPAR activity PPARγ (relative value, control = 100%)” value in data set [1] (10^−7 M of the test compound) was “Inactive”. The “PPAR activity PPARα (relative value, control = 100%)” value in data set [2] (10^−7 M of the test compound) is on record as “Inactive”.

With `Cc1cc(C(=O)C=Cc2sc(-c3ccc(C(F)(F)F)cc3)nc2C(C)C)ccc1C=CC(=O)O` [Example 4, 3-[4-[3-[4-Isopropyl-2-[4-(trifluoromethyl)phenyl]thiazol-5-yl-]propenoyl]-2-methylphenyl]acrylic acid], the “PPAR activity PPARδ (relative value, control = 100%)” value in data set [3] (setting [4]) is recorded as 22%. For the same compound, in data set [1] (10^−7 M of the test compound), the “PPAR activity PPARγ (relative value, control = 100%)” value is recorded as “Inactive”. In data set [2] (10^−7 M of the test compound), the “PPAR activity PPARα (relative value, control = 100%)” value is given as “Inactive”.

As to `CCc1cc(C(=O)CCc2sc(-c3ccc(C(F)(F)F)cc3)nc2C(C)C)ccc1CCC(=O)O` [Example 11, 3-[4-[3-[4-Isopropyl-2-[4-(trifluoromethyl)phenyl]-5-thiazolyl]propionyl]-2-ethylphenyl]propionic acid], the “PPAR activity PPARδ: relative value (control = 100%)” value in data set [3] (setting [4]) is 89%. Further, the “PPAR activity PPARγ: relative value (control = 100%)” value in data set [1] (10^−7 M of the test compound) is listed as “Inactive”. For the same compound, in data set [2] (10^−7 M of the test compound), the “PPAR activity PPARα: relative value (control = 100%)” value is on record as “Inactive”.

As to `Cc1cc(C(=O)CCc2nc(-c3ccccc3O)oc2C(C)C)ccc1CCC(=O)O` [Example 13, 3-[4-[3-[5-Isopropyl-2-(2-hydroxyphenyl)-4-oxazolyl]propionyl]-2-methylphenyl]propionic acid], the “PPAR activity PPARδ: relative value (control = 100%)” value in data set [3] (10^−6 M of the test compound, control GW-501516 10^−7 M = 100%, CV-1 cells) came to 62%. For the same compound, the “PPAR activity PPARγ: relative value (control = 100%)” value in data set [1] (10^−6 M of the test compound) is “Inactive”. Moreover, in data set [2] (10^−6 M of the test compound), the “PPAR activity PPARα: relative value (control = 100%)” value is given as “Inactive”.

Regarding `C=C(CCc1sc(-c2ccc(C(F)(F)F)cc2)nc1C(C)C)c1ccc(CCC(=O)O)c(C)c1` [Example 6, 3-[4-[1-[2-[4-Isopropyl-2-[4-(trifluoromethyl)phenyl]thiazol-5-yl]ethyl]vinyl]-2-methylphenyl]propionic acid], the “PPAR activity PPARγ (relative value, control = 100%)” value in data set [1] (10^−7 M of the test compound) is “Inactive”. In data set [2] (10^−7 M of the test compound), the “PPAR activity PPARα (relative value, control = 100%)” value was “Inactive”.

As for `Cc1cc(C(=O)CCc2sc(-c3ccc(C(F)(F)F)cc3)nc2C(C)C)ccc1CCC(=O)O` [Example 5, 3-[4-[3-[4-Isopropyl-2-[4-(trifluoromethyl)phenyl]thiazol-5-yl]propionyl]-2-methylphenyl]propionic acid], the “agonist function for PPARδ (in words)” value in data set [3] (summary of Tables 38 and 39) is “particularly strong agonist function”. In data set [1] (10^−7 M of the test compound), the “PPAR activity PPARγ (relative value, control = 100%)” value is reported as “Inactive”. Besides, in data set [2] (10^−7 M of the test compound), the “PPAR activity PPARα (relative value, control = 100%)” value was “Inactive”.

Consider `CC(C)c1nc(-c2ccc(C(F)(F)F)cc2)sc1CCC(=O)c1ccc(NCC(=O)O)cc1` [Example 8, N-[4-[3-[4-Isopropyl-2-[4-(trifluoromethyl)phenyl]thiazol-5-yl]propionyl]phenyl]glycine], for which the “PPAR activity PPARγ (relative value, control = 100%)” value in data set [1] (setting [5]) was “Inactive”. In addition, in data set [2] (setting [5]), the “PPAR activity PPARα (relative value, control = 100%)” value is given as “Inactive”.

In the case of `Cc1cc(C(=O)CCc2nc(-c3ccccc3)oc2C(C)C)ccc1CCC(=O)O` [Example 3, 3-[4-[3-(5-Isopropyl-2-phenyl-4-oxazolyl)propionyl]-2-methylphenyl]propionic acid], the “PPAR activity PPARγ (relative value, control = 100%)” value in data set [1] (setting [5]) was “Inactive”. In data set [2] (setting [5]), the “PPAR activity PPARα (relative value, control = 100%)” value was “Inactive”.

In turn, `Cc1cc(C(=O)CCc2nc(-c3ccc(Cl)cc3O)oc2C(C)C)ccc1CCC(=O)O` [Example 12, 3-[4-[3-[2-(4-Chloro-2-hydroxyphenyl)-5-isopropyl-4-oxazolyl]propionyl]-2-methylphenyl]propionic acid] registered a melting point of 141 to 144 °C. The “PPAR activity PPARδ: relative value (control = 100%)” value in data set [3] (setting [4]) is given as 93%. The “PPAR activity PPARγ: relative value (control = 100%)” value in data set [1] (10^−7 M of the test compound) is “Inactive”. Moreover, the “PPAR activity PPARα: relative value (control = 100%)” value in data set [2] (10^−7 M of the test compound) is given as “Inactive”.

Turning to `CC(C)c1cc(-c2ccc(C(F)(F)F)cc2)sc1CCC(=O)c1ccc(N(C)CC(=O)O)cc1` [Example 9, N-[4-[3-[3-Isopropyl-5-[4-(trifluoromethyl)phenyl]thiophen-2-yl]propionyl]phenyl]-N-methylglycine], in data set [1] (10^−7 M of the test compound), the “PPAR activity PPARγ (relative value, control = 100%)” value is reported as “Inactive”. For the same compound, in data set [2] (10^−7 M of the test compound), the “PPAR activity PPARα (relative value, control = 100%)” value is reported as “Inactive”.
